This is an account of results in ChEMBL document CHEMBL5518178 (Eur J Med Chem, 2024).

Calls of active or inactive are those of the source. The rule behind the calls is not given here.

Data set [1] has as its system MGC-803. The data set can be described thus: Antiproliferative activity against human MGC-803 cells assessed as inhibition of cell growth incubated for 48 hrs by MTT assay. The format is functional, cell-based. Particulars: MGC-803, 48 h.
For data set [2], the system named is MGC-803. The data set can be described thus: Antiproliferative activity against human MGC-803 cells assessed as decrease in cell density at 10 to 40 nmol/L incubated for 48 hrs by bright field microscopic analysis. The data set is classed as functional, cell-based. Particulars: dose 10-40 nmol/L.
Data set [3] deals with MGC-803. The data set can be described thus: Antiproliferative activity against human MGC-803 cells assessed as increase in nuclear brightness at 10 to 40 nmol/L incubated for 48 hrs by DAPI staining based fluorescence microscopic analysis. Particulars: dose 10-40 nmol/L. The format is functional, cell-based.
Data set [4] concerns the target T1, Tubulin (Homo sapiens) (UniProt P68371+Q9H4B7+P0DPH7+P68366+Q13509+Q71U36+P04350+Q3ZCM7+P07437+P68363+Q9BQE3+Q6PEY2+Q13885+Q9BVA1+Q9BUF5). Kind of data set: Inhibition of tubulin polymerization in human MGC-803 cells assessed as reduction in filamentous microtubule structure formation at 10 to 40 nmol/L incubated for 48 hrs by DAPI staining based fluorescence microscopic analysis. Particulars: dose 10-40 nmol/L. The data set is classed as cell-based.

The target of data set [5] is T1, Tubulin (Homo sapiens). The data set can be described thus: Inhibition of tubulin polymerization in human MGC-803 cells assessed as appearance of multinucleated cells at 10 to 40 nmol/L incubated for 48 hrs by DAPI staining based fluorescence microscopic analysis. The data set is classed as cell-based. Particulars: dose 10-40 nmol/L.
For data set [6], the system named is MGC-803. The data set can be described thus: Induction of cell cycle arrest in human MGC-803 cells assessed as increase in G2/M phase cells at 10 to 40 nmol/L incubated for 24 hrs by RNAse/propidium iodide staining based flow cytometry analysis relative to control. The format is functional. Particulars: dose 10-40 nmol/L, at 10 to 40 nM.
The test system of data set [7] is MGC-803. Kind of data set: Induction of apoptosis in human MGC-803 cells assessed as viable cells at 20 nmol/L incubated for 48 hrs by Annexin V-FITC/propidium iodide staining based flow cytometer analysis (reference value: 93.08 %). The data set is classed as functional. Particulars: read-out: Activity.
The subject of data set [8] is MGC-803. Kind of data set: Induction of apoptosis in human MGC-803 cells assessed as early apoptotic cells at 20 nmol/L incubated for 48 hrs by Annexin V-FITC/propidium iodide staining based flow cytometer analysis (reference value: 4.38 %). The data set is classed as functional.
For data set [9], the system named is MGC-803. Kind of data set: Induction of apoptosis in human MGC-803 cells assessed as late apoptotic cells at 20 nmol/L incubated for 48 hrs by Annexin V-FITC/propidium iodide staining based flow cytometer analysis (reference value: 2.22 %). The format is functional.
Data set [10] relates to MGC-803. Kind of data set: Induction of apoptosis in human MGC-803 cells assessed as necrotic cells at 40 nmol/L incubated for 48 hrs by Annexin V-FITC/propidium iodide staining based flow cytometer analysis (reference value: 0.32 %). The data set is classed as functional.
Data set [11] has as its system MGC-803. Kind of data set: Induction of apoptosis in human MGC-803 cells assessed as decrease in Bcl-xL protein level at 10 to 40 nmol/L incubated for 48 hrs by Western blotting. The format is functional, cell-based. Particulars: dose 10-40 nmol/L.
Data set [12] has as its system MGC-803. The data set can be described thus: Induction of apoptosis in human MGC-803 cells assessed as caspase-7 cleavage at 10 to 40 nmol/L incubated for 48 hrs by Western blotting. The format is functional, cell-based. Particulars: dose 10-40 nmol/L.
For data set [13], the system named is MGC-803. The data set can be described thus: Anti-migratory activity against human MGC-803 cells assessed as inhibition of cell migration at lower concentration measured for 48 hrs by wound healing assay. The format is functional, cell-based.
The subject of data set [14] is MGC-803. The data set can be described thus: Anti-migratory activity against human MGC-803 cells assessed as decrease in MMP-9 level at 10 to 40 nmol/L by Western blotting. The data set is classed as functional, cell-based. Particulars: dose 10-40 nmol/L.
Data set [15] deals with MGC-803. Kind of data set: Antitumor activity against human MGC-803 cells xenografted in BALB/c-nude mouse assessed as tumor growth inhibition at 30 mg/kg/day, ip administered for 18 days relative to control. Particulars: MGC-803, 432 h, time 18 day, read-out: TGI. The format is functional.
Data set [16] in a line: Toxicity in BALB/c-nude mouse xenografted with human MGC-803 cells assessed as abnormal behaviour at 30 mg/kg/day, ip administered for 18 days. The data set is classed as organism-based. Particulars: in vivo, 432 h, time 18 day.
Data set [17] can be described thus: Toxicity in BALB/c-nude mouse xenografted with human MGC-803 cells assessed as alteration in spleen tissue at 30 mg/kg/day, ip administered for 18 days by hematoxylin and eosin staining based analysis. The format is organism-based. Particulars: in vivo, 432 h, time 18 day.

`COc1ccc2c(c1)CCCN2c1cc(=O)oc2ccccc12`: the IC50 with MGC-803 [1] came to 34 nM. Besides, the outcome with MGC-803 [2], with MGC-803 [3], with MGC-803 [11], with MGC-803 [12], in the data set on MGC-803 [13] and in the data set on MGC-803 [14] was Active. Moreover, the inhibition entry on Tubulin (Homo sapiens) [4] and on Tubulin (Homo sapiens) [5] was “Active” each time. Further, the Activity is 18% in the data set with MGC-803 [6]; 9.14% with MGC-803 [8]; 2.7% with MGC-803 [9]; 1.3% in the data set on MGC-803 [10]; “Non-Toxic” in data set [16]; “Non-Toxic” in data set [17]. The viability at 0.02 µM in the data set on MGC-803 [7] was determined as 88%. The inhibition in vivo at 30 mg/kg/day in the data set on MGC-803 [15] stood at 65.5%.
